Source: ChEMBL document CHEMBL5331052, “Discovery of a novel water-soluble, rapid-release triptolide prodrug with improved drug-like properties and high efficacy in human acute myeloid leukemia” (Eur J Med Chem, 2022)
Active and inactive are the calls of the source. The calls are words filed in the database; no cut-off is given here.

Assays:
MV4-11 [1] = assay: Antitumor activity against human MV4-11 cells xenografted in BALB/c nude mouse assessed as tumor growth inhibition at 50 microg/kg, ip administered for 20 days in presence of gilteritinib and measured every 2 days relative to control; type: functional; conditions: MV4-11, 480 h, dose 50 µg/kg, time 20 day, read-out: TGI
PBMC = assay: Cytotoxicity against human PBMC cells assessed as cell survial at 30 to 300 nM measured after 48 hrs by CCK8 assay; type: toxicity, cell-based; conditions: 0.3 µM, dose 30-300 nM
[2] = Prodrug conversion in human plasma assessed as triptolide release at 50 ug/ml measured after 45 mins by HPLC analysis; type: ADME, cell-free; conditions: 0.75 h, dose 50 µg/ml
MV4-11 [3] = assay: Antitumor activity against human MV4-11 cells xenografted in BALB/c nude mouse assessed as complete tumor regression at 100 microg/kg, ip qd measured every 2 days for 12 days; type: functional, organism-based; conditions: dose 100.0 µg/kg, time 12.0 day
THP-1 [4] = assay: Antiproliferative activity against human THP-1 cells assessed as cell growth inhibition measured after 24 hrs by Edu incorporation assay; type: functional, cell-based; conditions: dose 30-120 nM
[5] = Toxicity in BALB/c nude mouse xenografted with human THP-1 cells assessed as animal death at 2.4 to 4.8 mg/kg, ip qd measured after 2 to 3 days; type: organism-based; conditions: in vivo, dose lower 2.4 mg/kg, time lower 2 day, dose upper 4.8 mg/kg, time upper 3 day
[6] = Prodrug conversion in human plasma assessed as (5bS,6aS,7aR,8R,8aS,9aS,9bS,10bS)-8a-isopropyl-10b-methyl-3-oxo-1,2,3,5,5b,6,6a,8,8a,9a,9b,10b-dodecahydrotris(oxireno [2',3':4b,5;2'',3'':6,7;2''',3''':8a,9]phenanthro[1,2-c]furan-8-yl 2-hydroxyacetate intermediate formation by HPLC analysis; type: ADME, cell-free
MV4-11 [7] = assay: Potency index, ratio of test compound IC50 to triptolide IC50 for antiproliferative activity against human MV4-11 cells assessed as inhibition of cell growth measured after 48 hrs by CCK8 assay; type: functional
MV4-11 [8] = assay: Antitumor activity against human MV4-11 cells xenografted in BALB/c nude mouse assessed as induction of apoptosis by measuring caspase-3 level in tumor at 50 microg/kg, ip administered for 20 days in presence of gilteritinib by immunohistochemical analysis; type: functional, organism-based; conditions: dose 50.0 µg/kg, time 20.0 day
[9] = Prodrug conversion in Sprague-Dawley rat plasma assessed as triptolide release at 500 ng/ml measured after 1 hrs by UPLC-MS/MS analysis; type: ADME, cell-free
[10] = Toxicity in BALB/c nude mouse xenografted with human THP-1 cells assessed as change in body weight at 0.1 to 1.2 mg/kg, ip qd measured every 2 days for 28 days; type: organism-based; conditions: in vivo, 672 h, dose 0.1-1.2 mg/kg, time 28 day
THP-1 [11] = assay: Antiproliferative activity against human THP-1 cells assessed as inhibition of cell growth measured after 48 hrs by CCK8 assay; type: functional, cell-based; conditions: THP-1, 48 h
[12] = Aqueous solubility of compound at 1 to 10 mg/ml by HPLC analysis; type: physicochemical; conditions: water; dose 1-10 mg/ml
THP-1 [13] = assay: Antitumor activity against human THP-1 cells xenografted in BALB/c nude mouse assessed as tumor growth inhibition at 100 microg/kg, ip qd measured every 2 days for 28 days relative to control; type: functional; conditions: THP-1, 672 h, dose 100 µg/kg, time 28 day, read-out: TGI
[14] = Microsomal stability in rat liver microsomes assessed as half life; type: ADME, Microsome
MV4-11 [15] = assay: Antitumor activity against human MV4-11 cells xenografted in ip dosed BALB/c nude mouse assessed as cell growth inhibition by measuring effect on Ki67 protein expression in tumor administered daily and measured after 28 days by immunohistochemical analysis; type: functional, organism-based; conditions: dose 25-50 µg/kg, time 28.0 day
[16] = Microsomal stability in rat liver microsomes assessed as intrinsic clearance; type: ADME, Microsome; conditions: read-out: CLH
[17] = Chemical stability of the compound in water assessed as parent compound remaining at 2 mg/ml measured immediately by HPLC analysis; type: physicochemical; conditions: read-out: Stability
[18] = Prodrug conversion in Sprague-Dawley rat plasma assessed as triptolide release at 50 ug/ml measured after 30 mins by HPLC analysis; type: ADME, cell-free; conditions: 0.5 h, dose 50 µg/ml
[19] = Microsomal stability in rat liver microsomes assessed as hepatic clearance; type: ADME, Microsome
MV4-11 [20] = assay: Antitumor activity against human MV4-11 cells xenografted in BALB/c nude mouse assessed as tumor growth inhibition at 25 microg/kg, ip qd measured every 2 days for 28 days relative to control; type: functional; conditions: MV4-11, 672 h, dose 25 µg/kg, time 28 day, read-out: TGI
[21] = Prodrug conversion in human plasma assessed as triptolide release at 50 to 5000 ng/ml measured for 1 hrs by HPLC analysis; type: ADME, cell-free; conditions: dose 50-5000 ng/ml
THP-1 [22] = assay: Potency index, ratio of test compound IC50 to triptolide IC50 for antiproliferative activity against human THP-1 cells assessed as inhibition of cell growth measured after 48 hrs by CCK8 assay; type: functional
THP-1 [23] = assay: Antitumor activity against human THP-1 cells xenografted in BALB/c nude mouse assessed as induction of apoptosis by measuring increase in cleaved caspase-3 level in tumor at 0.1 mg/kg, ip administered daily and measured after 28 days by immunohistochemical staining based analysis; type: functional, organism-based; conditions: time 28.0 day
MV4-11 [24] = assay: Antitumor activity against human MV4-11 cells xenografted in BALB/c nude mouse assessed as tumor growth inhibition at 300 microg/kg/day, IG measured everyday for 11 days relative to control; type: functional; conditions: MV4-11, po, 264 h, at 300 µg/kg/day, time 11 day, read-out: TGI
THP-1 [25] = assay: Antitumor activity against human THP-1 cells xenografted in BALB/c nude mouse assessed as cell growth inhibition by measuring effect on Ki67 protein expression in tumor at 0.1 mg/kg, ip administered daily and measured after 28 days by immunohistochemical analysis; type: functional, organism-based; conditions: time 28.0 day
MV4-11 [26] = assay: Antiproliferative activity against human MV4-11 cells assessed as cell growth inhibition measured after 24 hrs by Edu incorporation assay; type: functional, cell-based
MV4-11 [27] = assay: Antitumor activity against human MV4-11 cells xenografted in BALB/c nude mouse assessed as cell growth inhibition by measuring effect on Ki67 protein expression in tumor at 50 microg/kg, ip administered for 20 days in presence of gilteritinib by immunohistochemical analysis; type: functional, organism-based; conditions: dose 50.0 µg/kg, time 20.0 day
[28] = Prodrug conversion in human plasma assessed as triptolide release at 500 ng/ml measured after 1 hrs by UPLC-MS/MS analysis; type: ADME, cell-free
MV4-11 [29] = assay: Antitumor activity against human MV4-11 cells xenografted in ip dosed BALB/c nude mouse assessed as induction of apoptosis by measuring increase in cleaved caspase-3 level in tumor administered daily and measured after 28 days by immunohistochemical staining based analysis; type: functional, organism-based; conditions: dose 25-50 µg/kg, time 28.0 day
MV4-11 [30] = assay: Antiproliferative activity against human MV4-11 cells assessed as cell growth inhibition measured after 48 hrs by CCK8 assay; type: functional, cell-based; conditions: MV4-11, 48 h
[31] = Prodrug conversion in human plasma assessed as triptolide release at 1 mg/ml measured after 1 hrs by HPLC analysis; type: ADME, cell-free
THP-1 [32] = assay: Antitumor activity against human THP-1 cells xenografted in BALB/c nude mouse assessed as complete tumor regression at 300 microg/kg, ip qd measured every 2 days for 16 days; type: functional, organism-based; conditions: dose 300.0 µg/kg, time 16.0 day
[33] = Toxicity in BALB/c nude mouse xenografted with human MV4-11 cells assessed as change in body weight at 180 microg/kg/day, IG measured everyday for 11 days; conditions: in vivo, po, 264 h, dose 180 µg/kg/day, time 11 day
[34] = Prodrug conversion in human plasma assessed as (5bS,6aS,7aR,8R,8aS,9aS,9bS,10bS)-8a-isopropyl-10b-methyl-3-oxo-1,2,3,5,5b,6,6a,8,8a,9a,9b,10b-dodecahydrotris(oxireno [2',3':4b,5;2'',3'':6,7;2''',3''':8a,9]phenanthro[1,2-c]furan-8-yl 2-hydroxyacetate intermediate formation measured after 1 hr by HPLC analysis; type: ADME, cell-free
[35] = Chemical stability of the compound in water assessed as parent compound remaining at 2 mg/ml measured after 4 hrs by HPLC analysis; type: physicochemical; conditions: read-out: Stability
[36] = Prodrug conversion in human plasma assessed as triptolide release at 1 mg/ml measured after 1.5 hrs by HPLC analysis; type: ADME, cell-free
MV4-11 [37] = assay: Antitumor activity against human MV4-11 cells xenografted in BALB/c nude mouse assessed as tumor growth inhibition at 180 microg/kg/day, IG measured everyday for 11 days relative to control; type: functional; conditions: MV4-11, po, 264 h, at 180 µg/kg/day, time 11 day, read-out: TGI
[38] = Cmax in Sprague-Dawley rat at 1.0 mg/kg, po administered via oral gavage and measured upto 24 hrs by LC-MS/MS analysis; type: ADME, organism-based; set-up: dose 1 mg/kg, time < 24 hrs, route po; conditions: in vivo
[39] = AUC (0 to t) in Sprague-Dawley rat at 1.0 mg/kg, po administered via oral gavage and measured upto 24 hrs by LC-MS/MS analysis; type: ADME, organism-based; set-up: dose 1 mg/kg, time < 24 hrs, route po; conditions: in vivo
[40] = Tmax in Sprague-Dawley rat at 1.0 mg/kg, po administered via oral gavage and measured upto 24 hrs by LC-MS/MS analysis; type: ADME, organism-based; conditions: in vivo

CC(C)[C@]12O[C@H]1[C@@H]1O[C@]13[C@]1(O[C@H]1C[C@H]1C4=C(CC[C@@]13C)C(=O)OC4)[C@@H]2OC(=O)COC(=O)CN1CCOCC1.Cl
inhibition in vivo at 0.05 mg/kg (MV4-11 [1]): 78.1%
Activity (PBMC): Non-Toxic
Drug metabolism [2]: Metabolite_Detected
Activity (MV4-11 [3]): Active
Activity (THP-1 [4]): Dose-Dependent Effect
Activity [5]: Toxic
Drug metabolism [6]: Metabolite_Detected
Ratio IC50 (MV4-11 [7]): 2
Activity (MV4-11 [8]): Active
Drug metabolism [9]: Metabolite_Detected
Activity [10]: Non-Toxic
IC50 (THP-1 [11]): 14.8 nM
solubility [12]: 6130 µg/mL
inhibition in vivo at 0.1 mg/kg (THP-1 [13]): 93.9%
half-life [14]: 8.64 min
Activity (MV4-11 [15]): Dose-Dependent Effect
CLint scaled [16]: 288 mL/min/kg
remaining at 0 h, 2 mg/ml [17]: 99.4%
Drug metabolism [18]: Metabolite_Detected
CLhep predicted [19]: 65.6 mL/min/kg
inhibition in vivo at 0.025 mg/kg (MV4-11 [20]): 54.3%
Drug metabolism [21]: Metabolite_Detected
Ratio IC50 (THP-1 [22]): 2
Activity (THP-1 [23]): Active
inhibition in vivo at 0.3 mg/kg/day (MV4-11 [24]): 93.5%
Activity (THP-1 [25]): Active
Activity (MV4-11 [26]): Dose-Dependent Effect
Activity (MV4-11 [27]): Active
Drug metabolism [28]: Metabolite_Detected
Activity (MV4-11 [29]): Dose-Dependent Effect
IC50 (MV4-11 [30]): 46 nM
Drug metabolism [31]: Metabolite_Detected
Activity (THP-1 [32]): Active
Activity [33]: Non-Toxic
Drug metabolism [34]: Metabolite_Notdetected
remaining at 4 h, 2 mg/ml [35]: 99.1%

CC(C)[C@]12O[C@H]1[C@@H]1O[C@]13[C@]1(O[C@H]1C[C@H]1C4=C(CC[C@@]13C)C(=O)OC4)[C@@H]2OC(=O)CCCOC(=O)CN1CCOCC1.Cl
Drug metabolism [2]: Metabolite_Detected
solubility [12]: 7490 µg/mL
remaining at 0 h, 2 mg/ml [17]: 95%
Drug metabolism [18]: Metabolite_Detected
Drug metabolism [36]: Metabolite_Detected
remaining at 4 h, 2 mg/ml [35]: 94.8%

CC(C)[C@]12O[C@H]1[C@@H]1O[C@]13[C@]1(O[C@H]1C[C@H]1C4=C(CC[C@@]13C)C(=O)OC4)[C@@H]2O [TRIPTOLIDE]
inhibition in vivo at 0.18 mg/kg/day (MV4-11 [37]): 91.5%
Cmax [38]: 15.9 ng/mL
IC50 (THP-1 [11]): 7.04 nM
AUC(0-t) at 24 h [39]: 31.9 ng·h/mL
Tmax [40]: 26.4 min
IC50 (MV4-11 [30]): 12 nM
